We go through 13 compounds from patent US20230257376A1, “ROCK INHIBITOR, AND PREPARATION METHOD THEREFOR AND USE THEREOF” (WUHAN LL SCIENCE AND TECHNOLOGY DEVELOPMENT CO., LTD., priority 2020, published 2023).

As a reminder, the CC50 is the concentration at which the toxic effect on the cells reaches its halfway point. Low readings indicate harm at low concentration, high ones better tolerance by the cells. The term IC50 denotes the concentration that gives 50% inhibition. A low value points to inhibition by little substance.

Data set [1] in a line: In vitro metabolic stability, rat liver microsome incubation. The format is in vitro ADME. Particulars: liver microsomes, 1 mg/mL protein, 37° C., read-out: T1/2 in rat liver microsome. As to the method:
(§1) The in vitro metabolic stability of the compounds disclosed herein was determined through incubation of liver microsomes of various species. A proper amount of test compound was added into a liver microsome reaction system (1 mg/mL liver microsome protein, 25 U/mL glucose-6 phosphate dehydrogenase, 1 mM NADP, 6 mM D-glucose 6-phosphate and 5 mM MgCl2), and then the mixture was incubated in a water bath kettle at 37° C. to start reaction. At each time point, 100 μL of the reaction liquid was added into a centrifuge tube containing 400 μL of internal standard working solution (containing a 200 ng/mL solution of dexamethasone, diclofenac, tolbutamide and labetalol in acetonitrile) precooled at 0° C. so as to stop the reaction, and the mixture was then centrifuged at 10,000 g for 10 min at 4° C. The supernatant was collected for LC-MS assay so as to obtain the values of in vitro metabolic half-life of the test compounds in liver microsomes of various species.

A short description of data set [2]: In vitro metabolic stability, human liver microsome incubation. It is filed as in vitro ADME. As to conditions: liver microsomes, 1 mg/mL protein, 37° C., read-out: T1/2 in human liver microsome. Here is the method: as §1
(Microsomes from liver hold many membrane-bound enzymes, among them those of drug oxidation.)

A short description of data set [3]: In vitro cytotoxicity assay in HepG2 cells using the CCK-8 method. As to conditions: human. The format is cell-based. As to the method: In vitro cytotoxicity assay for the compounds disclosed herein was performed in HepG2 cells using the CCK-8 method. HepG2 cells (Beina Bio) in the logarithmic growth phase were collected, the concentration of cell suspension was adjusted, and then the cells were plated on a 96-well cell culture plate at 50,000 cells/well. The cells were then incubated overnight in a cell incubator (5%, 37° C.), and after 80-90% cell confluence was achieved, test compound at each concentration gradient or vehicle (DMSO) was added after medium change. The resulting mixture was incubated in the cell incubator (5%, 37° C.) for 48 h. After the treatment, the medium in the plate was discarded. The plate was washed twice with PBS, added with CCK-8 working solution (Beyotime) at 100 μL per well, and then incubated at 37° C. for 1.5 h in the dark. Absorbance at OD450 nm mil was measured for each well on a microplate reader, and CC50 value of each compound was analyzed and calculated.

Data set [4] can be described thus: In vitro metabolic stability, guinea pig liver microsome incubation. The format is in vitro ADME. Particulars: liver microsomes, 1 mg/mL protein, 37° C., read-out: T1/2 in guinea pig liver microsome. As to the method:
as §1

The target of data set [5] is T1, ROCK2 kinase (Homo sapiens, UniProt O75116).
T1 construct: purchased Invitrogen PV3759
Description: In vitro evaluation of ROCK2 kinase activity (HTRF KinEASE-STK time-resolved fluorometric assay). The format is biochemical. As to conditions: ROCK2 kinase 0.4 ng/μL, ATP 6.739 μM. As to the method:
ROCK2 activity screening. ROCK2 activity was detected using a 96-well (Cisbio) time-resolved fluorometric assay. The assay for ROCK2 was performed in the following assay buffer: 5 mM MgCl2 (Sigma), 1 mM DTT (Sigma) and 1× kinase buffer. The kinase buffer was used for dilution. 7.5 μL of ROCK2 kinase (Invitrogen, PV3759) was added to a 96-well microplate to reach a final concentration of 0.4 ng/μL, and then 0.25 μL of test compound (DMSO content: 1% (volume fraction)) was added. The mixture was incubated at room temperature for 0.5 h. To start the reaction, the kinase buffer was used to mix ATP (Aladdin) and the substrate STK-substrate 2-biotin. 7.5 μL of the mixed solution was added to the microplate to reach final concentrations of 6.739 μM and 1 μM. The resulting mixture was incubated at room temperature for 2 h. 5 mL of detection buffer was mixed with STK antibody-Cryptate, and then an appropriate volume of the mixture was mixed with an equal volume of streptavidin-XL665. 10 μL of the resulting mixture was added to the microplate to stop the reaction. After further incubation for about 1 h, the microplate was read on a Molecular Devices SpectraMax i3x multifunctional microplate reader. The kinase buffer, the STK-substrate 2-biotin, the detection buffer, the STK antibody-Cryptate, and the streptavidin-XL665 were all from HTRF KinEASE-STK kit (Cisbio, 1000 tests, 61GSTXLA).
For orientation: In TR-FRET formats the signal depends on donor and acceptor labels being close together.

In data set [6] the target is T2, ROCK1 kinase (Homo sapiens, UniProt Q13464).
T2 construct: purchased Invitrogen
Kind of data set: In vitro evaluation of ROCK1 kinase selectivity (HTRF KinEASE-STK time-resolved fluorometric assay). The format is biochemical. As to conditions: ROCK1 kinase 0.4 ng/μL, ATP 3.53 μM. As to the method:
ROCK1 activity was detected using a 96-well (Cisbio) time-resolved fluorometric assay. The assay for ROCK1 was performed in the following assay buffer: 5 mM MgCl2 (Sigma), 1 mM DTT (Sigma) and 1× kinase buffer. The kinase buffer was used for dilution. 7.5 μL of ROCK1 kinase (Invitrogen) was added to a 96-well microplate to reach a final concentration of 0.4 ng/μL, and then 0.25 μL of test compound (DMSO content: 1%) was added. The mixture was incubated at room temperature for 0.5 h. To start the reaction, the kinase buffer was also used to mix ATP (Aladdin) and the substrate STK-substrate 2-biotin. 7.5 μL of the mixed solution was added to the microplate to reach final concentrations of 3.53 μM and 1 μM. The resulting mixture was incubated at room temperature for 2 h. 5 mL of detection buffer was mixed with STK antibody-Cryptate, and then an appropriate volume of the mixture was mixed with an equal volume of streptavidin-XL665. 10 μL of the resulting mixture was added to stop the reaction. After further incubation for about 1 h, the microplate was read on a Molecular Devices SpectraMax i3x multifunctional microplate reader. The kinase buffer, the STK-substrate 2-biotin, the detection buffer, the STK antibody-Cryptate, and the streptavidin-XL665 were all from HTRF KinEASE-STK kit (Cisbio, 1000 tests, 61GSTXLA).

Some results are limits rather than exact numbers.

T2 sequence (Q13464 whole entry): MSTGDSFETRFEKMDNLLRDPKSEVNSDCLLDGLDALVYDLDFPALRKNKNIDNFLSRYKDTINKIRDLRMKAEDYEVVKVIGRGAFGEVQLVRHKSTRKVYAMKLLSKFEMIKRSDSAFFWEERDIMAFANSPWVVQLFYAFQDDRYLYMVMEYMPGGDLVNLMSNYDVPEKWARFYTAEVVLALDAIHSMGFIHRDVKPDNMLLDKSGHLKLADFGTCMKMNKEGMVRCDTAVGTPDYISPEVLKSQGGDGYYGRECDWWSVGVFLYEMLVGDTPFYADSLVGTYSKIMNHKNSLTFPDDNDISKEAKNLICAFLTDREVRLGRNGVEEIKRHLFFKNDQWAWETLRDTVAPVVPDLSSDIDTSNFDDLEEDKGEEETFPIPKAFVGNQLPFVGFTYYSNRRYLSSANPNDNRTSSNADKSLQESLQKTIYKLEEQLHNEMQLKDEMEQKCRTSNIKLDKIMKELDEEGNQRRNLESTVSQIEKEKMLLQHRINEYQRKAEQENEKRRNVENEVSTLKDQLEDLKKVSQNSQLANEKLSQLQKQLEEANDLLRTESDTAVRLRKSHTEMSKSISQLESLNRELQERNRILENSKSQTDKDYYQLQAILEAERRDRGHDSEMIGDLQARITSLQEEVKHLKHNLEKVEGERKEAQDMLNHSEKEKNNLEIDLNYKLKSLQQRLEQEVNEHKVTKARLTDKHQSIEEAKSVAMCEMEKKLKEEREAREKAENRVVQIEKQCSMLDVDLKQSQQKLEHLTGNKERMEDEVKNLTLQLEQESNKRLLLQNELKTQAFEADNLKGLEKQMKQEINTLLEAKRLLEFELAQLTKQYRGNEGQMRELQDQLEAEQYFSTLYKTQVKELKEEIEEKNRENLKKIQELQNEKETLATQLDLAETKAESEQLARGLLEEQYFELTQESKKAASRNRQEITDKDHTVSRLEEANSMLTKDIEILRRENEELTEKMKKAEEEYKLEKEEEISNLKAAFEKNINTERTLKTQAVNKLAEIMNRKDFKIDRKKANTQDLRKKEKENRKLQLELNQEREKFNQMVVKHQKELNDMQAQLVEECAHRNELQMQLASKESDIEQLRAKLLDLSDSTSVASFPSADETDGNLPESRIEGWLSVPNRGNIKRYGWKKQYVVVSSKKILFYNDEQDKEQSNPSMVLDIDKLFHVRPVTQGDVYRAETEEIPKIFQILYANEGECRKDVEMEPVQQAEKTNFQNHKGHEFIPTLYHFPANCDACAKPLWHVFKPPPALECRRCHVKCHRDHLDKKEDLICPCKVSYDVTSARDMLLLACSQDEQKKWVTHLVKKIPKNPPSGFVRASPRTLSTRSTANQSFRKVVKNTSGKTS
T1 sequence (O75116 whole entry): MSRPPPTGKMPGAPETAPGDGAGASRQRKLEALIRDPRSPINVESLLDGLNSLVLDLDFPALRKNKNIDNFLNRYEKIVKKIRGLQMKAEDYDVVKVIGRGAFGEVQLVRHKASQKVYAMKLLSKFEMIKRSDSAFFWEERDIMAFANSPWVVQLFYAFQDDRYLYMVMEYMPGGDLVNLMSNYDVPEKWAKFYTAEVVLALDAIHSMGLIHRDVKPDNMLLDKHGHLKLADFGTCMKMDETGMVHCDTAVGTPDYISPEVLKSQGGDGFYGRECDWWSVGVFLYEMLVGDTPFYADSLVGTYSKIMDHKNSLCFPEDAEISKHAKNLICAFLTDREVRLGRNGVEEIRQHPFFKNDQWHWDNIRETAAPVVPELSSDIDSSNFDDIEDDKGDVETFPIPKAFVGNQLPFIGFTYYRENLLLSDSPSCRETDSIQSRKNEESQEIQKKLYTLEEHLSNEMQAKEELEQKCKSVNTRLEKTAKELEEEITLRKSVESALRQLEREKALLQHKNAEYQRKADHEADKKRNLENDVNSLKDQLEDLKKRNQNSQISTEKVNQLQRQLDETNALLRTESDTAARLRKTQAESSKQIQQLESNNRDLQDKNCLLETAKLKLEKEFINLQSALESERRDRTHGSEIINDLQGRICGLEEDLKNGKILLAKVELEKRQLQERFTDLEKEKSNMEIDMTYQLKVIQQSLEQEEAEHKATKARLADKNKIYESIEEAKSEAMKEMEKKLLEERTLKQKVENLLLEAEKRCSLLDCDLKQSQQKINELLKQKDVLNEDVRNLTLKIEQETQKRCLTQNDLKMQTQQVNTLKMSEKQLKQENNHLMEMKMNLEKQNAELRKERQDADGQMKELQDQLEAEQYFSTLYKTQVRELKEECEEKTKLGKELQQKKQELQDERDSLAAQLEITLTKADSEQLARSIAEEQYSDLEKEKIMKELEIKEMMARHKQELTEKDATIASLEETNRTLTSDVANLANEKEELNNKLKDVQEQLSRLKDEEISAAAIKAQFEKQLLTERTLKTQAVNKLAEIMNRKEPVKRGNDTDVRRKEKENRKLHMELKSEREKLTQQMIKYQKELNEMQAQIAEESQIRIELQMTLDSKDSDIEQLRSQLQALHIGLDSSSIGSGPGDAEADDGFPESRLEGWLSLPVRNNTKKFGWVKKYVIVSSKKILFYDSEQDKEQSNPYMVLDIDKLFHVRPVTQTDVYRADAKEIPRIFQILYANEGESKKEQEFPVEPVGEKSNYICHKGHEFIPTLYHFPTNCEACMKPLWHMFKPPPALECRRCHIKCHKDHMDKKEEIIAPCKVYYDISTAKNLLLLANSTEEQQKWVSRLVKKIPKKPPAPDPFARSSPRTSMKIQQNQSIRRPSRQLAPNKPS

In the case of `COc1cnc(N2CCc3cc(C(=O)N4CC(F)(F)C4)n(C)c3C2)nc1Nc1ccc(-c2cn[nH]c2)cc1` [Compound L026, (6-(4-((4-(1H-pyrazol-4-yl)phenyl)amino)-5-methoxypyrimidin-2-yl)-1-methyl-4,5,6,7-tetrahydro-1H-pyrrolo[2,3-c]pyridin-2-yl)(3,3-difluoroazetidin-1-yl)methanone], the half-life was 1.02 h in data set [1], 3.95 h in data set [2] and 0.473 h in data set [4]. This compound also had a CC50 at 48 h in data set [3] above 100 µM. Besides, the IC50 was at most 0.05 µM in data set [5] and above 4.5 µM in data set [6].
In data set [3], `Cn1c(C(=O)N2CC(F)(F)C2)cc2c1CN(c1nc3c(c(Nc4ccc(-c5cn[nH]c5)cc4)n1)COCC3)CC2` [Compound L031] yielded a CC50 at 48 h of 33.4 µM. For the same compound, the figures for the IC50 in data set [5] and in data set [6] were at most 0.05 µM and above 4.5 µM, respectively.
In the case of `Cn1c(C(=O)N2CC(F)(F)C2)cc2c1CN(c1nncc(Nc3ccc(-c4cn[nH]c4)cc3)n1)CC2` [Compound L037, (6-(5-((4-(1H-pyrazol-4-yl)phenyl)amino)-1,2,4-triazin-3-yl)-1-methyl-4,5,6,7-tetrahydro-1H-pyrrolo(2,3-c)pyridin-2-yl)(3,3-difluoroazetidin-1-yl)methanone], the results for the half-life in data set [1], in data set [2] and in data set [4] were 0.554 h, 2.61 h and 1 h, respectively. In data set [3], this compound yielded a CC50 at 48 h above 100 µM. Besides, the IC50 in data set [5] was at most 0.05 µM; in data set [6] it was above 4.5 µM.
As to `Cc1nc(Nc2ccc(-c3cn[nH]c3)cc2)nc(N2CCc3cc(C(=O)N4CC(C#N)C4)n(C)c3C2)n1` [Compound L050, 1-(6-(4-((4-(1H-pyrazol-4-yl)phenyl)amino)-6-methyl-1,3,5-triazin-2-yl)-1-methyl-4,5,6,7-tetrahydro-1H-pyrrolo[2,3-c]pyridin-2-carbonyl)azetidine-3-carbonitrile], the half-life in data set [1] turned out to be 1.03 h; in data set [2], 4.32 h; in data set [4], 1.07 h. The CC50 at 48 h in data set [3] is above 100 µM. For the same compound, the IC50 was 0.05 to 0.5 µM in data set [5] and above 4.5 µM in data set [6].
On to `Cn1c(C(=O)N2CC(F)(F)C2)cc2c1CN(c1nc(CC#N)nc(Nc3ccc(-c4cn[nH]c4)cc3)n1)CC2` [Compound L051, 2-(4-((4-(1H-pyrazol-4-yl)phenyl)amino)-6-(2-(3,3-difluoroazetidin-1-carbonyl)-1-methyl-1,4,5,7-tetrahydro-6H-pyrrolo[2,3-c]pyridin-6-yl)-1,3,5-triazin-2-yl)acetonitrile], for which the half-life amounted to 1.08 h in data set [1], 4.82 h in data set [2] and 0.84 h in data set [4]. The same compound showed a cytotoxic concentration (CC50) at 48 h in data set [3] above 100 µM. Besides, the figures for the IC50 in data set [5] and in data set [6] were 0.05 to 0.5 µM and above 4.5 µM, respectively.
`Cn1c(C(=O)N2CC(F)(F)C2)cc2c1CN(c1nc(C#N)cc(Nc3ccc(-c4cn[nH]c4)cc3)n1)CC2` [Compound L042]: the figures for the half-life in data set [1], in data set [2] and in data set [4] were 5.75 h, 7.3 h and 5.81 h, respectively. In data set [3], this compound yielded a CC50 at 48 h of 27.9 µM. For the same compound, the IC50 in data set [5] was 0.05 to 0.5 µM; in data set [6], above 4.5 µM.
With `CC(C)NC(=O)COc1cccc(-c2nc(Nc3ccc4[nH]ncc4c3)c3ccccc3n2)c1` [KD-025, reference compound], the half-life in data set [1] was 0.287 h; in data set [2], 1.52 h; in data set [4] it was 1.61 h.
Regarding `COc1nnc(N2CCc3cc(C(=O)N4CC(F)(F)C4)n(C)c3C2)nc1Nc1ccc(-c2cn[nH]c2)cc1` [Compound L043, (6-(5-((4-(1H-pyrazol-4-yl)phenyl)amino)-6-methoxy-1,2,4-triazin-3-yl)-1-methyl-4,5,6,7-tetrahydro-1H-pyrrolo[2,3-c]pyridin-2-yl)(3,3-difluoroazetidin-1-yl)methanone], the half-life came to 1.34 h in data set [1], 1.87 h in data set [2] and 1.42 h in data set [4]. Moreover, in data set [3], the CC50 at 48 h was above 100 µM. In data set [5], this compound came in with an IC50 of 0.05 to 0.5 µM.
On to `O=C(c1cc2c(n1C(F)F)CN(c1ncnc(Nc3ccc(-c4cn[nH]c4)cc3)n1)CC2)N1CC(F)(F)C1` [Compound L045, (6-(4-((4-(1H-pyrazol-4-yl)phenyl)amino)-1,3,5-triazin-2-yl)-1-(difluoromethyl)-4,5,6,7-tetrahydro-1H-pyrrolo[2,3-c]pyridin-2-yl)(3,3-difluoroazetidin-1-yl)methanone], for which the CC50 at 48 h in data set [3] was above 100 µM. Also, the IC50 in data set [5] and in data set [6] was above 4.5 µM throughout.
Compound `O=C(c1cc2c(n1C(F)F)CN(c1ncc(F)c(Nc3ccc(-c4cn[nH]c4)cc3)n1)CC2)N1CC(F)(F)C1` [Compound L047, (6-(4-((4-(1H-pyrazol-4-yl)phenyl)amino)-5-fluoropyrimidin-2-yl)-1-(difluoromethyl)-4,5,6,7-tetrahydro-1H-pyrrolo[2,3-c]pyridin-2-yl)(3,3-difluoroazetidin-1-yl)methanone] registered a CC50 at 48 h in data set [3] above 100 µM. For the same compound, the IC50 in data set [5] and in data set [6] was above 4.5 µM throughout.
`CCc1nc(Nc2ccc(-c3cn[nH]c3)cc2)nc(N2CCc3cc(C(=O)N4CC(F)(F)C4)n(C)c3C2)n1` [Compound L048, (6-(4-((4-(1H-pyrazol-4-yl)phenyl)amino)-6-ethyl-1,3,5-triazin-2-yl)-1-methyl-4,5,6,7-tetrahydro-1H-pyrrolo[2,3-c]pyridin-2-yl)(3,3-difluoroazetidin-1-yl)methanone]: the CC50 at 48 h in data set [3] worked out at 100 µM. In addition, the IC50 is 0.5 to 4.5 µM in data set [5] and above 4.5 µM in data set [6].
As to `Cn1c(C(=O)Nc2cnccc2F)cc2c1CN(c1nccc(Nc3ccc(-c4cn[nH]c4)cc3)n1)CC2` [Compound L023], the results for the concentration for half-maximal inhibition (IC50) in data set [5] and in data set [6] were 0.05 to 0.5 µM and 0.5 to 4.5 µM, respectively.
On to `Cn1c(C(=O)N2CC(F)(F)C2)cc2c1CN(c1ncc(C(F)(F)F)c(Nc3ccc(-c4cn[nH]c4)cc3)n1)CC2` [Compound L035, (6-(4-((4-(1H-pyrazol-4-yl)phenyl)amino)-5-(trifluoromethyl)pyrimidin-2-yl)-1-methyl-4,5,6,7-tetrahydro-1H-pyrrolo[2,3-c]pyridin-2-yl)(3,3-difluoroazetidin-1-yl)methanone], for which the IC50 in data set [5] is 0.05 to 0.5 µM; in data set [6], above 4.5 µM.
